Source: article PMC1903359, “Engineering of PA-IIL lectin from Pseudomonas aeruginosa – Unravelling the role of the specificity loop for sugar preference” (BMC Structural Biology, 2007)
Where two headings read alike, the source gives them in different places.

Experiments:
PA-IIL wild type = settings: cited from earlier work
RS-IIL = system: RS-IIL; set-up: method as in PMID 16768446; settings: cited from earlier work
PA-IIL S23A = PA-IIL S23A (Pseudomonas aeruginosa, UniProt Q9HYN5, S24A); assay: ITC binding of monosaccharides to PA-IIL mutant S23A; settings: ITC at 25°C
PA-IIL S22A = PA-IIL S22A (Pseudomonas aeruginosa, UniProt Q9HYN5, S23A); assay: ITC binding of monosaccharides to PA-IIL mutant S22A; settings: for -TΔS: calculated from ΔG and ΔH
PA-IIL G24N = PA-IIL G24N (Pseudomonas aeruginosa, UniProt Q9HYN5, G25N); assay: ITC binding of monosaccharides to PA-IIL mutant G24N; settings: for ΔH / -TΔS: ITC at 25°C; for -TΔS: calculated from ΔG and ΔH
[1] = target: PA-IIL lectin from Pseudomonas aeruginosa, mutant G24N (Pseudomonas aeruginosa); assay: crystal structure; mutants co-crystallised with fucose (hanging drop), soaked 24 h in 10 mM Me-α-D-Man or Me-α-L-Fuc; tetramer in the asymmetric unit
[2] = target: PA-IIL lectin from Pseudomonas aeruginosa, mutant S22A (Pseudomonas aeruginosa); assay: as above
[3] = target: PA-IIL lectin from Pseudomonas aeruginosa, mutant S23A (Pseudomonas aeruginosa); assay: as above
[4] = PA-IIL wild type, ITC at 25°C, ref Sabin, C. et al, 2006 [14]
[5] = ITC at 25°C, comparison data, Figure 7 gives ref 18

CO[C@@H]1O[C@@H](C)[C@@H](O)[C@@H](O)[C@@H]1O [Me-α-L-Fuc, methyl α-L-fucopyranoside]
-TΔS (PA-IIL wild type; [4]): 4.9 (± 1.0) kJ/mol
KA (PA-IIL wild type; [4]): 235 (± 8.0) ×10^4M^-1
Kd (PA-IIL wild type; [4]): 430 nM
ΔG (PA-IIL wild type; [4]): -36.4 (± 0.1) kJ/mol
ΔH (PA-IIL wild type; [4]): -41.3 (± 1.0) kJ/mol
entropic contribution TΔS (PA-IIL wild type; native (wild type) PA-IIL, sign as TΔS): -1.17 kcal/mol
KA (RS-IIL; footnote b: value < 10^4 M^-1): < 10000 M⁻¹
Kd (RS-IIL; footnote b): > 100000 nM

CO[C@@H]1O[C@@H](CO)[C@@H](O)[C@@H](O)[C@@H]1O [Me-α-L-Gal, methyl α-L-galactopyranoside]
ΔH (PA-IIL S23A): -26.8 (± 1.7) kJ/mol
-TΔS (PA-IIL wild type; [4]): -2.3 (± 0.7) kJ/mol
KA (PA-IIL wild type; [4]): 85.0 (± 5.0) ×10^4M^-1
Kd (PA-IIL wild type; [4]): 1170 nM
ΔH (PA-IIL wild type; [4]): -31.5 (± 0.6) kJ/mol
ΔH (PA-IIL S22A; S22A, ITC at 25°C): -19.2 (± 0.2) kJ/mol
-TΔS (PA-IIL S22A; S22A, ITC at 25°C): -8.3 (± 0.3) kJ/mol
ΔH (PA-IIL G24N): -18.7 (± 0.3) kJ/mol
-TΔS (PA-IIL G24N): -15.0 (± 0.9) kJ/mol

CO[C@H]1O[C@H](CO)[C@@H](O)[C@H](O)[C@@H]1O [Me-β-D-Man, methyl α-D-mannopyranoside]
ΔH (PA-IIL S23A): -16.7 (± 2.3) kJ/mol
KA (PA-IIL S23A; 0.1 M Tris-HCl, 30 μM CaCl2, pH 7.5): 1.91 (± 0.33) ×10^4M^-1
-TΔS (PA-IIL S23A; calculated from ΔG and ΔH): -7.7 (± 2.7) kJ/mol
times higher affinity of the mutant compared to the wild type protein (PA-IIL S22A; S22A versus wild type PA-IIL): 25 times
total difference in free energy, mutant versus wild type (PA-IIL S22A; S22A versus wild type PA-IIL): -1.91 kcal/mol
-TΔS (PA-IIL S22A; S22A, ITC at 25°C): -7.4 (± 0.7) kJ/mol
favourable entropic contribution TΔS (PA-IIL S22A; S22A, sign as TΔS): 1.77 kcal/mol
-TΔS (RS-IIL; [5]): -13.0 (± 0.2) kJ/mol
KA (RS-IIL; [5]): 438 (± 2.0) ×10^4M^-1
Kd (RS-IIL; [5]): 230 nM
ΔG (RS-IIL; [5]): -37.9 (± 0.1) kJ/mol
ΔH (PA-IIL G24N): -27.1 (± 0.8) kJ/mol
-TΔS (PA-IIL G24N): 2.1 (± 0.9) kJ/mol
entropic contribution as share of the total Gibbs energy change (PA-IIL G24N; unfavourable entropic contribution): 8%

PA-IIL lectin from Pseudomonas aeruginosa, mutant G24N (natural protein)
stoichiometry N [1]: 4

PA-IIL lectin from Pseudomonas aeruginosa, mutant S22A (natural protein)
stoichiometry N [2]: 4

PA-IIL lectin from Pseudomonas aeruginosa, mutant S23A (natural protein)
stoichiometry N [3]: 4
